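Tested at 5 concentrations; 48 h exposure; 96-well plates; endpoints linearly interpolated, else capped at highest concentration. Here, GI50 denotes the concentration required for 50% inhibition of growth.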 The source made the active and inactive calls. Rule as the data show it: active = GI50 up to about 1.1 µM and inactive = higher.
Legend:
Test in all cases: inhibition of tumour cell growth, NCI panel, 48 h
MOLT-4 = tested on: MOLT-4
HOP-62 = tested on: HOP-62
SF-268 = tested on: SF-268
EKVX = tested on: EKVX
NCI-H226 = tested on: NCI-H226
IGROV-1 = tested on: IGROV-1
XF498 = tested on: XF498
COLO 205 = tested on: COLO 205
KM12 = tested on: KM12
OVCAR-8 = tested on: OVCAR-8
A498 = tested on: A498
NCI-H460 = tested on: NCI-H460
NCI-H522 = tested on: NCI-H522
SK-OV-3 = tested on: SK-OV-3
UO-31 = tested on: UO-31
KM-20L2 = tested on: KM-20L2
SN12C = tested on: SN12C
HT-29 = tested on: HT-29
M19-MEL = tested on: M19-MEL
ACHN = tested on: ACHN
K562 = tested on: K562
DLD-1 = tested on: DLD-1
CCRF-CEM = tested on: CCRF-CEM
SNB-78 = tested on: SNB-78
SF-539 = tested on: SF-539
SW-620 = tested on: SW-620
SR = tested on: SR
UACC-62 = tested on: UACC-62
RXF 393 = tested on: RXF 393
TK-10 = tested on: TK-10
UACC-257 = tested on: UACC-257
HCC 2998 = tested on: HCC 2998
Malme-3M = tested on: Malme-3M
HOP-92 = tested on: HOP-92
HL-60 = tested on: HL-60
SK-MEL-2 = tested on: SK-MEL-2
A549 = tested on: A549
LXFL 529 = tested on: LXFL 529
DMS-273 = tested on: DMS-273
NCI-H23 = tested on: NCI-H23
SNB-19 = tested on: SNB-19
SF-295 = tested on: SF-295
SK-MEL-28 = tested on: SK-MEL-28
U-251 = tested on: U-251
HOP-18 = tested on: HOP-18
OVCAR-4 = tested on: OVCAR-4
786-0 = tested on: 786-0
DMS-114 = tested on: DMS-114
CAKI-1 = tested on: CAKI-1
LOX IMVI = tested on: LOX IMVI
OVCAR-3 = tested on: OVCAR-3
HCT-116 = tested on: HCT-116
M14 = tested on: M14
SNB-75 = tested on: SNB-75
HCT-15 = tested on: HCT-15
RPMI-8226 = tested on: RPMI-8226
RXF 631 = tested on: RXF 631
OVCAR-5 = tested on: OVCAR-5
SK-MEL-5 = tested on: SK-MEL-5

In the case of `COc1ccc2c(c1)N1CCc3cc(OC)c(OC)cc3C1C2` (stereo unspecified), the GI50 (MOLT-4) was 26 µM (inactive), the GI50 (HOP-62) was > 100 µM (inactive) and the GI50 (SF-268) was > 100 µM (inactive). For the same compound, the GI50 (EKVX) was > 100 µM (inactive), the GI50 (NCI-H226) was 35.5 µM (inactive) and the GI50 (IGROV-1) was 28.4 µM (inactive). The GI50 (XF498) was 26.5 µM (inactive), the GI50 (COLO 205) was > 100 µM (inactive) and the GI50 (KM12) was 89.1 µM (inactive). The GI50 (OVCAR-8) was > 100 µM (inactive), the GI50 (A498) was 41.4 µM (inactive) and the GI50 (NCI-H460) was 52.4 µM (inactive). The GI50 (NCI-H522) was 23.7 µM (inactive), the GI50 (SK-OV-3) was > 100 µM (inactive) and the GI50 (UO-31) was 85.9 µM (inactive). For the same compound, the GI50 (KM-20L2) was 73.3 µM (inactive), the GI50 (SN12C) was 51.9 µM (inactive) and the GI50 (HT-29) was 70.3 µM (inactive). The GI50 (M19-MEL) was 41.2 µM (inactive), the GI50 (ACHN) was 53 µM (inactive) and the GI50 (K562) was 32.3 µM (inactive). The GI50 (DLD-1) was 39.7 µM (inactive), the GI50 (CCRF-CEM) was 61 µM (inactive) and the GI50 (SNB-78) was > 100 µM (inactive). The GI50 (SF-539) was > 100 µM (inactive), the GI50 (SW-620) was > 100 µM (inactive) and the GI50 (SR) was 34.2 µM (inactive). The GI50 (UACC-62) was 23.6 µM (inactive), the GI50 (RXF 393) was 65 µM (inactive) and the GI50 (TK-10) was > 100 µM (inactive). The GI50 (UACC-257) was 57.9 µM (inactive), the GI50 (HCC 2998) was 51.1 µM (inactive) and the GI50 (Malme-3M) was 30.5 µM (inactive). For the same compound, the GI50 (HOP-92) was 79.8 µM (inactive), the GI50 (HL-60) was 26.2 µM (inactive) and the GI50 (SK-MEL-2) was 87.5 µM (inactive). The GI50 (A549) was 47.8 µM (inactive), the GI50 (LXFL 529) was 34 µM (inactive) and the GI50 (DMS-273) was 43.3 µM (inactive). The GI50 (NCI-H23) was 50.1 µM (inactive), the GI50 (SNB-19) was > 100 µM (inactive) and the GI50 (SF-295) was 88.7 µM (inactive). For the same compound, the GI50 (SK-MEL-28) was 89.1 µM (inactive), the GI50 (U-251) was > 100 µM (inactive) and the GI50 (HOP-18) was > 100 µM (inactive). The GI50 (OVCAR-4) was 33.8 µM (inactive), the GI50 (786-0) was 54.6 µM (inactive) and the GI50 (DMS-114) was 37.6 µM (inactive). The GI50 (CAKI-1) was 53.2 µM (inactive) and the GI50 (LOX IMVI) was 98.6 µM (inactive).
For `CSc1nnc2n1-c1ccccc1SCC2`, the GI50 (MOLT-4) was > 100 µM (inactive), the GI50 (HOP-62) was > 100 µM (inactive) and the GI50 (OVCAR-3) was > 100 µM (inactive). For the same compound, the GI50 (SF-268) was > 100 µM (inactive), the GI50 (EKVX) was > 100 µM (inactive) and the GI50 (NCI-H226) was > 100 µM (inactive). The GI50 (IGROV-1) was > 100 µM (inactive), the GI50 (XF498) was > 100 µM (inactive) and the GI50 (COLO 205) was > 100 µM (inactive). For the same compound, the GI50 (KM12) was > 100 µM (inactive), the GI50 (OVCAR-8) was > 100 µM (inactive) and the GI50 (A498) was > 100 µM (inactive). The GI50 (NCI-H460) was > 100 µM (inactive), the GI50 (NCI-H522) was > 100 µM (inactive) and the GI50 (SK-OV-3) was > 100 µM (inactive). For the same compound, the GI50 (HCT-116) was > 100 µM (inactive), the GI50 (UO-31) was > 100 µM (inactive) and the GI50 (KM-20L2) was > 100 µM (inactive). For the same compound, the GI50 (SN12C) was > 100 µM (inactive), the GI50 (HT-29) was > 100 µM (inactive) and the GI50 (M19-MEL) was > 100 µM (inactive). The GI50 (ACHN) was > 100 µM (inactive), the GI50 (K562) was > 100 µM (inactive) and the GI50 (DLD-1) was > 100 µM (inactive). The GI50 (CCRF-CEM) was > 100 µM (inactive), the GI50 (SNB-78) was > 100 µM (inactive) and the GI50 (SF-539) was > 100 µM (inactive). The GI50 (SW-620) was > 100 µM (inactive), the GI50 (SR) was > 100 µM (inactive) and the GI50 (UACC-62) was > 100 µM (inactive). The GI50 (M14) was > 100 µM (inactive), the GI50 (RXF 393) was > 100 µM (inactive) and the GI50 (TK-10) was > 100 µM (inactive). For the same compound, the GI50 (UACC-257) was > 100 µM (inactive), the GI50 (HCC 2998) was > 100 µM (inactive) and the GI50 (SNB-75) was > 100 µM (inactive). For the same compound, the GI50 (Malme-3M) was > 100 µM (inactive), the GI50 (HOP-92) was > 100 µM (inactive) and the GI50 (HL-60) was > 100 µM (inactive). For the same compound, the GI50 (SK-MEL-2) was > 100 µM (inactive), the GI50 (A549) was > 100 µM (inactive) and the GI50 (LXFL 529) was > 100 µM (inactive). For the same compound, the GI50 (DMS-273) was > 100 µM (inactive), the GI50 (NCI-H23) was > 100 µM (inactive) and the GI50 (SNB-19) was > 100 µM (inactive). For the same compound, the GI50 (SF-295) was > 100 µM (inactive), the GI50 (HCT-15) was greater than 100 µM and the GI50 (SK-MEL-28) was > 100 µM (inactive). The GI50 (U-251) was > 100 µM (inactive), the GI50 (HOP-18) was > 100 µM (inactive) and the GI50 (OVCAR-4) was > 100 µM (inactive). The GI50 (786-0) was > 100 µM (inactive), the GI50 (RPMI-8226) was > 100 µM (inactive) and the GI50 (DMS-114) was > 100 µM (inactive). For the same compound, the GI50 (LOX IMVI) was > 100 µM (inactive).
`O=C(O)c1oc2cccc3c2c1CCC3` was tested, and the GI50 (MOLT-4) was > 100 µM (inactive), the GI50 (HOP-62) was > 100 µM (inactive) and the GI50 (OVCAR-3) was > 100 µM (inactive). The GI50 (SF-268) was > 100 µM (inactive), the GI50 (EKVX) was > 100 µM (inactive) and the GI50 (IGROV-1) was > 100 µM (inactive). For the same compound, the GI50 (RXF 631) was > 100 µM (inactive), the GI50 (XF498) was > 100 µM (inactive) and the GI50 (COLO 205) was > 100 µM (inactive). The GI50 (KM12) was > 100 µM (inactive), the GI50 (OVCAR-8) was > 100 µM (inactive) and the GI50 (A498) was > 100 µM (inactive). For the same compound, the GI50 (NCI-H460) was > 100 µM (inactive), the GI50 (OVCAR-5) was > 100 µM (inactive) and the GI50 (NCI-H522) was > 100 µM (inactive). For the same compound, the GI50 (SK-OV-3) was > 100 µM (inactive), the GI50 (HCT-116) was > 100 µM (inactive) and the GI50 (UO-31) was 12.8 µM (inactive). For the same compound, the GI50 (KM-20L2) was > 10 µM (inactive), the GI50 (SN12C) was > 100 µM (inactive) and the GI50 (HT-29) was > 100 µM (inactive). The GI50 (M19-MEL) was > 100 µM (inactive), the GI50 (ACHN) was > 100 µM (inactive) and the GI50 (K562) was > 100 µM (inactive). The GI50 (DLD-1) was > 100 µM (inactive), the GI50 (CCRF-CEM) was > 100 µM (inactive) and the GI50 (SNB-78) was > 100 µM (inactive). For the same compound, the GI50 (SF-539) was > 100 µM (inactive), the GI50 (SW-620) was > 100 µM (inactive) and the GI50 (SR) was > 100 µM (inactive). For the same compound, the GI50 (UACC-62) was 41.7 µM (inactive), the GI50 (M14) was > 100 µM (inactive) and the GI50 (RXF 393) was > 100 µM (inactive). For the same compound, the GI50 (TK-10) was > 100 µM (inactive), the GI50 (UACC-257) was > 100 µM (inactive) and the GI50 (HCC 2998) was > 100 µM (inactive). The GI50 (SNB-75) was 99.3 µM (inactive), the GI50 (Malme-3M) was > 100 µM (inactive) and the GI50 (HOP-92) was > 100 µM (inactive). For the same compound, the GI50 (HL-60) was > 100 µM (inactive), the GI50 (SK-MEL-2) was > 100 µM (inactive) and the GI50 (A549) was > 100 µM (inactive). For the same compound, the GI50 (LXFL 529) was > 100 µM (inactive), the GI50 (DMS-273) was > 100 µM (inactive) and the GI50 (NCI-H23) was > 100 µM (inactive). The GI50 (SNB-19) was > 100 µM (inactive), the GI50 (SF-295) was > 100 µM (inactive) and the GI50 (HCT-15) was greater than 100 µM. For the same compound, the GI50 (SK-MEL-5) was > 100 µM (inactive), the GI50 (SK-MEL-28) was > 100 µM (inactive) and the GI50 (U-251) was > 100 µM (inactive). For the same compound, the GI50 (OVCAR-4) was > 100 µM (inactive), the GI50 (786-0) was > 100 µM (inactive) and the GI50 (RPMI-8226) was > 100 µM (inactive). The GI50 (DMS-114) was > 100 µM (inactive) and the GI50 (LOX IMVI) was > 100 µM (inactive).

— ChEMBL document CHEMBL1201862, “PubChem BioAssay data set” (2004)
